Molecules are shown by their SMILES.

In the assay the test system is SR cells. The assay is described as follows: Half inhibitory concentration (IC50) on ALK-positive SR cell proliferation (CCK-8). The class given is cell-based. The following applies: Homo sapiens; SR cells, 72 h drug treatment, CCK-8; read-out: IC50 (nM)/ SR cell line. The procedure: ALK-positive SR cells (human large cell immunoblastic lymphoma) were purchased from the American Type Culture Collection (ATCC); H3122 cells (human non-small cell lung cancer) were from the Shanghai University of Science and Technology Lin Haifan's research group.
The cells used in this present disclosure were cultured in a 37° C. incubator containing 5% CO2.
SR cells were seeded in 100 μL RPMI1640 complete medium at a density of 10,000 cells/well. 100 μL of the inoculated cells were treated with 0.5 μL diluted PROTAD compound of the present disclosure to be tested at 10 successively decreasing concentrations (starting at the highest concentration of 10 μM; 5-fold serial dilutions) After the cells were treated with the drug for 72 h, cell viability was determined according to the CCK-8 reagent operating instructions. The negative control was DMSO, and the positive control was a commercial inhibitor. After CCK-8 treatment for 2 h, the value of O.D.450 was measured using a microplate reader.

With `CCc1cc2c(cc1N1CCC(N3CCN(C(=O)CCCCCSc4cccc5c4C(=O)N(C4CCC(=O)NC4=O)C5=O)CC3)CC1)C(C)(C)c1[nH]c3cc(C#N)ccc3c1C2=O` (stereo not shown) [SIAIS219007, 8-(4-(4-(6-((2-(2,6-dioxopiperidin-3-yl)-1,3-dioxoisoindolin-4-yl)thio)hexanoyl)piperazin-1-yl)piperidin-1-yl)-9-ethyl-6,6-dimethyl-11-oxo-6,11-dihydro-5H-benzo[b]carbazole-3-carbonitrile], the IC50 was 50.1 nM.

Consider `CCc1cc2c(cc1N1CCC(N3CCN(C(=O)CCCCCCSc4cccc5c4CN(C4CCC(=O)NC4=O)C5=O)CC3)CC1)C(C)(C)c1[nH]c3cc(C#N)ccc3c1C2=O` (stereo not shown) [SIAIS262101, 8-(4-(4-(7-((2-(2,6-dioxopiperidin-3-yl)-1-oxoisoindolin-4-yl)thio)heptanoyl)piperazin-1-yl)piperidin-1-yl)-9-ethyl-6,6-dimethyl-11-oxo-6,11-dihydro-5H-benzo[b]carbazole-3-carbonitrile], for which the IC50 came out at 2.94 ± 3.7 nM.

As to `COc1cc(N2CCC(NC(=O)CCCSc3cccc4c3CN(C3CCC(=O)NC3=O)C4=O)CC2)ccc1Nc1ncc(Cl)c(Nc2ccccc2P(C)(C)=O)n1` (stereo not shown) [SIAIS219135, N-(1-(4-((5-chloro-4-((2-(dimethylphosphoryl)phenyl)amino)pyrimidin-2-yl)amino)-3-methoxyphenyl)piperidin-4-yl)-4-((2-(2,6-dioxopiperidin-3-yl)-1-oxoisoindolin-4-yl)thio)butanamide], the IC50 was found to be 0.33 ± 0.02 nM.

Turning to `CCc1cc2c(cc1N1CCC(N3CCN(C(=O)CCCSc4cccc5c4C(=O)N(C4CCC(=O)NC4=O)C5=O)CC3)CC1)C(C)(C)c1[nH]c3cc(C#N)ccc3c1C2=O` (stereo not shown) [SIAIS219006, 8-(4-(4-(4-((2-(2,6-dioxopiperidin-3-yl)-1,3-dioxoisoindolin-4-yl)thio)butanoyl)piperazin-1-yl)piperidin-1-yl)-9-ethyl-6,6-dimethyl-11-oxo-6,11-dihydro-5H-benzo[b]carbazole-3-carbonitrile], the IC50 was found to be 16.4 nM.

`CCc1cc2c(cc1N1CCC(N3CCN(CCSc4cccc5c4C(=O)N(C4CCC(=O)NC4=O)C5=O)CC3)CC1)C(C)(C)c1[nH]c3cc(C#N)ccc3c1C2=O` (stereo not shown) [SIAIS262158, 8-(4-(4-(2-((2-(2,6-dioxopiperidin-3-yl)-1,3-dioxoisoindolin-4-yl)thio)ethyl)piperazin-1-yl)piperidin-1-yl)-9-ethyl-6,6-dimethyl-11-oxo-6,11-dihydro-5H-benzo[b]carbazole-3-carbonitrile]: the IC50 is 2.9 nM.

Consider `CCc1cc2c(cc1N1CCC(N3CCN(C(=O)CCCCSc4cccc5c4CN(C4CCC(=O)NC4=O)C5=O)CC3)CC1)C(C)(C)c1[nH]c3cc(C#N)ccc3c1C2=O` (stereo not shown) [SIAIS262099, 8-(4-(4-(5-((2-(2,6-dioxopiperidin-3-yl)-1-oxoisoindolin-4-yl)thio)pentanoyl)piperazin-1-yl)piperidin-1-yl)-9-ethyl-6,6-dimethyl-11-oxo-6,11-dihydro-5H-benzo[b]carbazole-3-carbonitrile], for which the IC50 came out at 0.93 ± 1.11 nM.

With `CCc1cc2c(cc1N1CCC(N3CCN(C(=O)COCCOCCOCCOCCSc4cccc5c4CN(C4CCC(=O)NC4=O)C5=O)CC3)CC1)C(C)(C)c1[nH]c3cc(C#N)ccc3c1C2=O` (stereo not shown) [SIAIS249069, 8-(4-(4-(14-((2-(2,6-dioxopiperidin-3-yl)-1-oxoisoindolin-4-yl)thio)-3,6,9,12-tetraoxatetradecanoyl)piperazin-1-yl)piperidin-1-yl)-9-ethyl-6,6-dimethyl-11-oxo-6,11-dihydro-5H-benzo[b]carbazole-3-carbonitrile], the IC50 is 0.81 ± 0.28 nM.

For the molecule `CCc1cc2c(cc1N1CCC(N3CCN(C(=O)COCCOCCSc4cccc5c4CN(C4CCC(=O)NC4=O)C5=O)CC3)CC1)C(C)(C)c1[nH]c3cc(C#N)ccc3c1C2=O` (stereo not shown) [SIAIS249067, 8-(4-(4-(2-(2-(2-((2-(2,6-dioxopiperidin-3-yl)-1-oxoisoindolin-4-yl)thio)ethoxy)ethoxy)acetyl)piperazin-1-yl)piperidin-1-yl)-9-ethyl-6,6-dimethyl-11-oxo-6,11-dihydro-5H-benzo[b]carbazole-3-carbonitrile], the IC50 turned out to be 0.38 ± 0.18 nM.

Take `COc1cc(N2CCC(NC(=O)COCCOCCOCCOCCOCCSc3cccc4c3CN(C3CCC(=O)NC3=O)C4=O)CC2)ccc1Nc1ncc(Cl)c(Nc2ccccc2P(C)(C)=O)n1` (stereo not shown) [SIAIS219143, N-(1-(4-((5-chloro-4-((2-(dimethylphosphoryl)phenyl)amino)pyrimidin-2-yl)amino)-3-methoxyphenyl)piperidin-4-yl)-17-((2-(2,6-dioxopiperidin-3-yl)-1-oxoisoindolin-4-yl)thio)-3,6,9,12,15-pentaoxaheptadecan-1-amide]: the IC50 worked out at 5.53 ± 1.28 nM.

Turning to `COc1cc(N2CCC(NC(=O)COCCOCCOCCSc3cccc4c3CN(C3CCC(=O)NC3=O)C4=O)CC2)ccc1Nc1ncc(Cl)c(Nc2ccccc2P(C)(C)=O)n1` (stereo not shown) [SIAIS219141, N-(1-(4-((5-chloro-4-((2-(dimethylphosphoryl)phenyl)amino)pyrimidin-2-yl)amino)-3-methoxyphenyl)piperidin-4-yl)-2-(2-(2-(2-((2-(2,6-dioxopiperidin-3-yl)-1-oxoisoindolin-4-yl)thio)ethoxy)ethoxy)ethoxy)acetamide], the IC50 came to 5 ± 0.71 nM.

As for `CCc1cc2c(cc1N1CCC(NC(=O)CCCCCSc3cccc4c3C(=O)N(C3CCC(=O)NC3=O)C4=O)CC1)C(C)(C)c1[nH]c3cc(C#N)ccc3c1C2=O` (stereo not shown) [SIAIS219014, N-(1-(3-cyano-9-ethyl-6,6-dimethyl-11-oxo-6,11-dihydro-5H-benzo[b]carbazol-8-yl)piperidin-4-yl)-6-((2-(2,6-dioxopiperidin-3-yl)-1,3-dioxoisoindolin-4-yl)thio)hexanamide], the IC50 came to 101 nM.

Regarding `CCc1cc2c(cc1N1CCC(NC(=O)COCCSc3cccc4c3CN(C3CCC(=O)NC3=O)C4=O)CC1)C(C)(C)c1[nH]c3cc(C#N)ccc3c1C2=O` (stereo not shown) [SIAIS262163, N-(1-(3-cyano-9-ethyl-6,6-dimethyl-11-oxo-6,11-dihydro-5H-benzo[b]carbazol-8-yl)piperidin-4-yl)-2-(2-((2-(2,6-dioxopiperidin-3-yl)-1-oxoisoindolin-4-yl)thio)ethoxy)acetamide], the IC50 came to 1.6 nM.

Consider `CCc1cc2c(cc1N1CCC(N3CCN(C(=O)CCSc4cccc5c4CN(C4CCC(=O)NC4=O)C5=O)CC3)CC1)C(C)(C)c1[nH]c3cc(C#N)ccc3c1C2=O` (stereo not shown) [SIAIS262097, 8-(4-(4-(3-((2-(2,6-dioxopiperidin-3-yl)-1-oxoisoindolin-4-yl)thio)propanoyl)piperazin-1-yl)piperidin-1-yl)-9-ethyl-6,6-dimethyl-11-oxo-6,11-dihydro-5H-benzo[b]carbazole-3-carbonitrile], for which the IC50 was determined as 3.89 ± 0.78 nM.

With `COc1cc(N2CCC(NC(=O)CCCCCSc3cccc4c3CN(C3CCC(=O)NC3=O)C4=O)CC2)ccc1Nc1ncc(Cl)c(Nc2ccccc2P(C)(C)=O)n1` (stereo not shown) [SIAIS219137, N-(1-(4-((5-chloro-4-((2-(dimethylphosphoryl)phenyl)amino)pyrimidin-2-yl)amino)-3-methoxyphenyl)piperidin-4-yl)-6-((2-(2,6-dioxopiperidin-3-yl)-1-oxoisoindolin-4-yl)thio)hexanamide], the IC50 was 0.48 ± 0.05 nM.

As to `COc1cc(N2CCC(NC(=O)CCCCCCSc3cccc4c3CN(C3CCC(=O)NC3=O)C4=O)CC2)ccc1Nc1ncc(Cl)c(Nc2ccccc2P(C)(C)=O)n1` (stereo not shown) [SIAIS219138, N-(1-(4-((5-chloro-4-((2-(dimethylphosphoryl)phenyl)amino)pyrimidin-2-yl)amino)-3-methoxyphenyl)piperidin-4-yl)-7-((2-(2,6-dioxopiperidin-3-yl)-1-oxoisoindolin-4-yl)thio)heptanamide], the IC50 was 0.29 ± 0.01 nM.

On to `CCc1cc2c(cc1N1CCC(N3CCN(C(=O)COCCSc4cccc5c4CN(C4CCC(=O)NC4=O)C5=O)CC3)CC1)C(C)(C)c1[nH]c3cc(C#N)ccc3c1C2=O` (stereo not shown) [SIAIS249066, 8-(4-(4-(2-(2-((2-(2,6-dioxopiperidin-3-yl)-1-oxoisoindolin-4-yl)thio)ethoxy)acetyl)piperazin-1-yl)piperidin-1-yl)-9-ethyl-6,6-dimethyl-11-oxo-6,11-dihydro-5H-benzo[b]carbazole-3-carbonitrile], for which the IC50 is 0.17 ± 0.14 nM.

`COc1cc(N2CCC(NC(=O)COCCOCCOCCOCCSc3cccc4c3CN(C3CCC(=O)NC3=O)C4=O)CC2)ccc1Nc1ncc(Cl)c(Nc2ccccc2P(C)(C)=O)n1` (stereo not shown) [SIAIS219142, N-(1-(4-((5-chloro-4-((2-(dimethylphosphoryl)phenyl)amino)pyrimidin-2-yl)amino)-3-methoxyphenyl)piperidin-4-yl)-14-((2-(2,6-dioxopiperidin-3-yl)-1-oxoisoindolin-4-yl)thio)-3,6,9,12-tetraoxatetradecan-1-amide]: the IC50 was found to be 7 ± 1 nM.

In the case of `CCc1cc2c(cc1N1CCC(N3CCN(C(=O)CSc4cccc5c4CN(C4CCC(=O)NC4=O)C5=O)CC3)CC1)C(C)(C)c1[nH]c3cc(C#N)ccc3c1C2=O` (stereo not shown) [SIAIS262096, 8-(4-(4-(2-((2-(2,6-dioxopiperidin-3-yl)-1-oxoisoindolin-4-yl)thio)acetyl)piperazin-1-yl)piperidin-1-yl)-9-ethyl-6,6-dimethyl-11-oxo-6,11-dihydro-5H-benzo[b]carbazole-3-carbonitrile], the IC50 was 0.22 ± 0.11 nM.

As for `CCc1cc2c(cc1N1CCC(N3CCN(C(=O)CCCCCSc4cccc5c4CN(C4CCC(=O)NC4=O)C5=O)CC3)CC1)C(C)(C)c1[nH]c3cc(C#N)ccc3c1C2=O` (stereo not shown) [SIAIS262100, 8-(4-(4-(6-((2-(2,6-dioxopiperidin-3-yl)-1-oxoisoindolin-4-yl)thio)hexanoyl)piperazin-1-yl)piperidin-1-yl)-9-ethyl-6,6-dimethyl-11-oxo-6,11-dihydro-5H-benzo[b]carbazole-3-carbonitrile], the IC50 stood at 0.52 ± 0.48 nM.
